Source: US9840474B2, “Pyrimidine compounds and use as anti-cervical cancer thereof” (SICHUAN UNIVERSITY, priority 2014, dated 2017)
Read-outs that look alike come from different tables or passages of the source.

Tests used:
Type in all cases: cell-based
HPV16 E6 mRNA = experiment: Real-time PCR of HPV16 E6 mRNA expression in Caski cells; details: for inhibition at 0.2 µg/mL: Human papillomavirus 16, Ca-Ski; for inhibition at 0.2 µg/mL / E6 One independent tests (inhibitory rate) / E6 Two independent tests (inhibitory rate): 48 h; for effect on HPV E6 mRNA in Caski cells / inhibitory activity on E6 compared with positive control cidofovir / E6 One independent tests (inhibitory rate) / E6 Two independent tests (inhibitory rate): Caski cells; for E6 One independent tests (inhibitory rate): test one; for E6 Two independent tests (inhibitory rate): test two
Source text: (§1) In order to investigate in vitro effects of CH01 and CH02 against cervical cancer and HPV16 viruses, in the experiment, the cytotoxicity of above compounds, together with their effects on HPV16 E6 and E7 mRNA, is investigated by culture with human cervical cancer cells (HPV16 positive). Structures of test compounds are shown as follows:
(§2) [Experimental Method] • 1. Cytotoxicity: MTT method was used, and Reed-Muench method was used to calculate indexes median toxic concentration (TC50) and maximum non-toxic concentation (TC0). • 2. HPV16 E6 and E7 mRNA: The cell culture was treated for 48 h at maximum non-toxic concentration, and then the culture was terminated. Total RNA in cells was extracted, and effects of test samples on HPV16 E6 and E7 mRNA were measured using Real-time PCR method.
(§3) Effects of Samples on Expression of HPV16 E6 mRNA and HPV16 E7 mRNA in Caski Cells

HPV16 E7 mRNA = experiment: Real-time PCR of HPV16 E7 mRNA expression in Caski cells; details: for inhibition at 0.2 µg/mL: Human papillomavirus 16, Ca-Ski; for inhibition at 0.2 µg/mL / E7 One independent tests (inhibitory rate) / E7 Two independent tests (inhibitory rate): 48 h; for effect on HPV E7 mRNA in Caski cells / inhibitory activity on E7 compared with positive control cidofovir / E7 One independent tests (inhibitory rate) / E7 Two independent tests (inhibitory rate): Caski cells; for E7 One independent tests (inhibitory rate): test one; for E7 Two independent tests (inhibitory rate): test two
Source text: as §1, §2, §3

[1] = system: human cervical carcinoma Caski cells; experiment: MTT cytotoxicity / inhibition test of cervical cancer Caski cells; details: for OD: Caski cells, MTT; for IC50 value: cervical cancer Caski cells
Source text: as §1, §2
[Experimental Result] • 1. Inhibition Test of Cervical Cancer Caski Cells

Row | Compound | OD ([1]; 0.097656 μg/ml) | OD ([1]; 0.195313 μg/ml) | OD ([1]; 0.390625 μg/ml) | OD ([1]; 0.78125 μg/ml) | OD ([1]; 1.5625 μg/ml) | OD ([1]; 3.125 μg/ml) | OD ([1]; 6.25 μg/ml) | OD ([1]; 12.5 μg/ml) | OD ([1]; 25 μg/ml) | OD ([1]; 50 μg/ml) | OD ([1]; 100 μg/ml) | OD ([1]; 200 μg/ml) | IC50 value [1] | effect on HPV E6 mRNA in Caski cells (HPV16 E6 mRNA) | inhibitory activity on E6 compared with positive control cidofovir (HPV16 E6 mRNA) | E6 One independent tests (inhibitory rate) (HPV16 E6 mRNA; 0.067 μg/ml) | E6 Two independent tests (inhibitory rate) (HPV16 E6 mRNA; 0.067 μg/ml) | E6 One independent tests (inhibitory rate) (HPV16 E6 mRNA; 0.2 μg/ml) | E6 Two independent tests (inhibitory rate) (HPV16 E6 mRNA; 0.2 μg/ml) | effect on HPV E7 mRNA in Caski cells (HPV16 E7 mRNA) | other results
1 | Nc1ccn(C[C@@H](CO)OCP(=O)(O)O)c(=O)n1 [cidofovir, reference compound] | – | – | – | – | – | – | – | – | – | – | – | – | – | – | – | – | – | – | – | – | inhibition at 0.2 µg/mL (HPV16 E6 mRNA; read-out: E6 One independent tests (inhibitory rate)): 32.6%; inhibition at 0.2 µg/mL (HPV16 E6 mRNA; read-out: E6 Two independent tests (inhibitory rate)): 33.6%; inhibition at 0.2 µg/mL (HPV16 E7 mRNA; read-out: E7 One independent tests (inhibitory rate)): 32.1%; inhibition at 0.2 µg/mL (HPV16 E7 mRNA; read-out: E7 Two independent tests (inhibitory rate)): 32.4%
2 | 4-(4-tert-butylbenzylamino)-5-formaldoxime-6-chloropyrimidine [CH01] | 0.8367 | 0.7847 | 0.6353 | 0.5667 | 0.488 | 0.4667 | 0.4117 | 0.3033 | 0.283 | 0.28 | 0.2967 | 0.4373 | about 1.5 μg/ml | showed inhibitory effects | better inhibitory activity than the positive control cidofovir | 0.489 | 0.494 | 0.577 | 0.553 | showed inhibitory effects | inhibitory activity on E7 compared with positive control cidofovir (HPV16 E7 mRNA): better inhibitory activity than the positive control cidofovir; E7 One independent tests (inhibitory rate) (HPV16 E7 mRNA; 0.067 μg/ml): 0.488; E7 Two independent tests (inhibitory rate) (HPV16 E7 mRNA; 0.067 μg/ml): 0.455; E7 One independent tests (inhibitory rate) (HPV16 E7 mRNA; 0.2 μg/ml): 0.484; E7 Two independent tests (inhibitory rate) (HPV16 E7 mRNA; 0.2 μg/ml): 0.449
3 | 4-(2-methoxybenzylamino)-5-formaldoxime-6-chloropyrimidine [CH02] | 0.8357 | 0.78 | 0.4733 | 0.3837 | 0.313 | 0.2943 | 0.2727 | 0.2743 | 0.2803 | 0.3087 | 0.3757 | 0.5557 | about 0.4 μg/ml | showed inhibitory effects | better inhibitory activity than the positive control cidofovir | 0.461 | 0.481 | 0.599 | 0.549 | showed inhibitory effects | inhibitory activity on E7 compared with positive control cidofovir (HPV16 E7 mRNA): better inhibitory activity than the positive control cidofovir; E7 One independent tests (inhibitory rate) (HPV16 E7 mRNA; 0.067 μg/ml): 0.484; E7 Two independent tests (inhibitory rate) (HPV16 E7 mRNA; 0.067 μg/ml): 0.488; E7 One independent tests (inhibitory rate) (HPV16 E7 mRNA; 0.2 μg/ml): 0.516; E7 Two independent tests (inhibitory rate) (HPV16 E7 mRNA; 0.2 μg/ml): 0.526
